Measurements as given in patent US20190263796A1, “LIM KINASE INHIBITORS, PHARMACEUTICAL COMPOSITION AND METHOD OF USE IN LIMK-MEDIATED DISEASES” (CELLIPSE, priority 2016, published 2019).
Where two headings read alike, the source gives them in different places.

How the values were obtained:
[1] = test system: Phospho-Ser3-Cofilin/Total Cofilin; assay: Western blot cofilin phosphorylation, MV4-11 (II.6); assay type: cell-based; conditions: MV4-11 cells
Method: (§1) MV4-11 cell line was originally purchased from the American Type Culture Collection (ATCC) or from the Leibniz-Institut Deutsche Sammlung von Mikroorganismen und Zellkulturen GmbH (DSMZ). MV4-11 cells are cultured in RPMI 1640 20% (v/v) FBS supplemented with 100 U/mL^−1 penicillin, 0.1 mg·mL^−1 streptomycin (PAN Biotech P06-07100) and 2 mM Glutamine (Sigma-Aldrich 59202C). Cells were maintained at 37° C. with 5% CO2.
(§2) In a 6 wells plate (Falcon 353046), 2·10^6 cells in 1.5 mL medium are treated for 2 h with compounds. Cells are then collected and cell lysis is performed at 4° C. using RIPA buffer supplemented with protease inhibitors cocktail (Sigma-Aldrich P8340) and phosphatase inhibitors cocktail (Sigma-Aldrich P5726). Following centrifugation 30 min 15000 g 4° C., supernatants are mixed with Laemmli buffer and denaturation is performed by heating 5 min 95° C. 10 μL of samples are subjected to electrophoresis on 15% SDS-PAGE. After electro-transfer (Mini Transblot, Bio-Rad), the PVDF membrane (Merck-Millipore Immobilon P IPVH00010) is blocked with Tris Buffered Saline, pH 7.4 (TBS) with 0.1% Tween 20 and 5% BSA for 1 h RT under agitation. The membrane was rinsed 3 times 10 min at room temperature under agitation with TBS, 0.1% Tween-20 (TBST) and then 1 h at room temperature with anti-phospho-Ser3-cofilin (Cell Signaling Technology #3313, 1/1000 dilution) antibody or anti-cofilin (Cell Signaling Technology #3312, 1/1000 dilution) diluted in TBS, 0.1% Tween 20 and 1% BSA. The membrane is then rinsed 3 times 10 min at room temperature under agitation in TBST and incubated for 1 h with anti-rabbit secondary antibody, horseradish peroxidase conjugated (Jackson Immunoresearch #711-036-152) under agitation at room temperature. After three washes 10 min at room temperature in TBST, the detection of total or phosphorylated cofilin was performed using chemiluminescence kit ECL™ Plus (GE Healthcare RPN2132). For each concentration of compound, ratio between phosphorylated cofilin and total cofilin is determined. This ratio is then expressed as percentage of control ratio (i.e., ratio from DMSO treated cells). IC50 Phospho-Ser3-Cofilin/Total Cofilin is then determined.

[2] = test system: Phospho-Ser3-Cofilin/Total Cofilin; assay: Western blot cofilin phosphorylation, MOLM-14; assay type: cell-based; conditions: MOLM-14 cells, 2 h
Method: MOLM-14 cell line was originally purchased from the American Type Culture Collection (ATCC). MOLM-14 cells are cultured in MEM alpha 10% (v/v) FBS supplemented with 100 U/mL^−1 penicillin, 0.1 mg·mL^−1 streptomycin (PAN Biotech P06-07100). Cells were maintained at 37° C. with 5% CO2.
as §2

[3] = test system: P-MEK/Total MEK; assay: Western blot MEK1 phosphorylation, MV4-11; assay type: cell-based; conditions: for IC50: read-out: IC50 P-MEK/Total MEK; for Selectivity ratio: IC50 P-MEK/Total MEK divided by IC50 Phospho-Ser3-Cofilin/Total Cofilin
Method: as §1
(§3) In a 6 wells plate (Falcon 353046), 2·10^6 cells in 1.5 mL medium are treated for 2 h with compounds. Cells are then collected and cell lysis is performed at 4° C. using RIPA buffer supplemented with protease inhibitors cocktail (Sigma-Aldrich P8340) and phosphatase inhibitors cocktail (Sigma-Aldrich P5726). Following centrifugation 30 min 15000 g 4° C., supernatants are mixed with Laemmli buffer and denaturation is performed by heating 5 min 95° C. 10 μL of samples are subjected to electrophoresis on 15% SDS-PAGE. After electro-transfer (Mini Transblot, Bio-Rad), the PVDF membrane (Merck-Millipore Immobilon P IPVH00010) is blocked with Tris Buffered Saline, pH 7.4 (TBS) with 0.1% Tween 20 and 5% BSA for 1 h at room temperature under agitation. The membrane was rinsed 3 times 10 min at room temperature under agitation with TBS, 0.1% Tween-20 (TBST) and then 1 h at room temperature with anti-phospho-Ser218/222-MEK1 (Merck-Millipore 07-461, 1/1000 dilution) antibody or anti-MEK1 (Merck-Millipore 07-641, 1/1000 dilution) diluted in TBS, 0.1% Tween 20 and 1% BSA. The membrane is then rinsed 3 times 10 min RT under agitation in TBST and incubated for 1 h with anti-rabbit secondary antibody, horseradish peroxidase conjugated (Jackson Immunoresearch #711-036-152) under agitation at room temperature. After three washes 10 min at room temperature in TBST, the detection of total or phosphorylated cofilin was performed using chemiluminescence kit ECL™ Plus (GE Healthcare RPN2132). For each concentration of compound, ratio between phosphorylated cofilin and total cofilin is determined. This ratio is then expressed as percentage of control ratio (i.e., ratio from DMSO treated cells). IC50 P-MEK/Total MEK is then determined.
(§4) Selectivity ratios are calculated by dividing the IC50 P-MEK/Total MEK value (μM) by the IC50 Phospho-Ser3-Cofilin/Total Cofilin value (μM).

[4] = molecular target: LIMK1(h) (Homo sapiens, UniProt P53667); assay: LIMK1 kinase assay (Eurofins Panlabs, radiometric); assay type: biochemical; set-up: purchased Eurofins Panlabs Inc. (contract assay service)
Method: Compounds were tested in a LIMK1 assay performed by Eurofins Panlabs Inc. LIMK1 (h) is incubated with 8 mM MOPS pH 7.0, 0.2 mM EDTA, 0.6 mg/mL cofilin, 10 mM Magnesium acetate and [gamma-33P]-ATP. The reaction is initiated by the addition of the Mg/ATP mix. After incubation for 40 min at room temperature, the reaction is stopped by the addition of phosphoric acid to a concentration of 0.5%. […] IC50 LIMK1 is then determined.

[5] = test system: MV4-11 cells; assay: Cell proliferation assay (PrestoBlue), MV4-11; assay type: cell-based; conditions: Homo sapiens, 48 h
Method: as §1, with “(ATCC).” for “(ATCC) or from the Leibniz-Institut Deutsche Sammlung von Mikroorganismen und Zellkulturen GmbH (DSMZ).”, “10%” for “20%”
The assay was performed in 96 wells microplate (Greiner Bioone 655090). MV4-11 cells are seeded at 5,000 cells per well. Compounds (or equivalent amounts of DMSO) are then added and cells are allowed to grow for 48 h. Proliferation is evaluated using PrestoBlue assay according to manufacturer recommendations. Results are expressed as GI50 (Growth Inhibition 50%: concentration at which proliferation is inhibited of 50%) in comparison to DMSO controls.

[6] = test system: Phospho-Ser3-Cofilin/Total Cofilin; assay: Western blot cofilin phosphorylation, K-562; assay type: cell-based; conditions: Homo sapiens; K562 cells; 2 h
Method: (§5) K-562 cell line was originally purchased from the Leibniz-Institut Deutsche Sammlung von Mikroorganismen und Zellkulturen GmbH (DSMZ). K-562 cells are cultured in RPMI 1640 10% (v/v) FBS supplemented with 100 U/mL^−1 penicillin, 0.1 mg·mL^−1 streptomycin (PAN Biotech P06-07100). Cells were maintained at 37° C. with 5% CO2.
as §2

[7] = test system: P-MEK/Total MEK; assay: Western blot MEK1 phosphorylation, K-562; assay type: cell-based; conditions: for IC50: Homo sapiens, read-out: IC50 P-MEK/Total MEK; for Selectivity ratio: IC50 P-MEK/Total MEK divided by IC50 Phospho-Ser3-Cofilin/Total Cofilin
Method: as §5, §3, §4

Sequence of LIMK1(h) (P53667 whole entry): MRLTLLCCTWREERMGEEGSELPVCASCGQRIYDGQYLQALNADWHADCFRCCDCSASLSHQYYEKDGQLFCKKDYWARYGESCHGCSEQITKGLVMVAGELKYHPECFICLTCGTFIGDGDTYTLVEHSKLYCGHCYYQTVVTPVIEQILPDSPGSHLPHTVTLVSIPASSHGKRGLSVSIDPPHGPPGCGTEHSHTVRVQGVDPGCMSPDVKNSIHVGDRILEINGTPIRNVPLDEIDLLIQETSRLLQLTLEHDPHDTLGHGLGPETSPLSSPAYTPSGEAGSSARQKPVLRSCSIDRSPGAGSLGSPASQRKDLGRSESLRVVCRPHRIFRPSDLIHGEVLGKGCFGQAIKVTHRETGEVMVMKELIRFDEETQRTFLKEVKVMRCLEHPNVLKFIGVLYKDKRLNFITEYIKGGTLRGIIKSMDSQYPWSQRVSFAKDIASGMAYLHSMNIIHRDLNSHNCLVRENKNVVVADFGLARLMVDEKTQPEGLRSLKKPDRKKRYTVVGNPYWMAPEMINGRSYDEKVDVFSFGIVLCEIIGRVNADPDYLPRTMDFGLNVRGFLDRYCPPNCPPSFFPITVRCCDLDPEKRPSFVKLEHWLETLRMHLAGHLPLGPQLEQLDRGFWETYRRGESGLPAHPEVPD

SMILES	IC50 ([1]; 2 h)	IC50 [2]	IC50 ([3]; MV4-11 cells, 2 h)	Selectivity ratio ([3]; MV4-11 cells)	IC50 ([4]; 15 μM ATP, Table 8, read-out: IC50 LIMK1)	GI50 [5]	IC50 ([1]; Homo sapiens, 2 h)	IC50 [6]	IC50 ([2]; Homo sapiens)	IC50 ([3]; Homo sapiens, MV4-11, 2 h)	IC50 ([7]; K562, 2 h)	Selectivity ratio ([7]; K562 cells)	IC50 [4]	IC50 ([4]; read-out: IC50 LIMK1, Table 5, value reported in part II.1)	IC50 ([1]; Homo sapiens, MV4-11, 2 h)	IC50 ([3]; Homo sapiens, MV4-11 cells, 2 h)	IC50 ([7]; K562 cells, 2 h)	IC50 ([4]; 15 μM ATP, Table 2, read-out: IC50 LIMK1)
O=S(=O)(Nc1cccc(-c2nc(CCO)sc2-c2ccnc(Nc3ccccc3)n2)c1F)c1c(F)cccc1F [8 (Na)]	< 0.2 µM	< 0.2 µM	> 1 µM	6	< 0.01 µM	–	–	–	–	–	–	–	–	–	–	–	–	–
CC(C)(C)c1nc(-c2cccc(NS(=O)(=O)c3c(F)cccc3F)c2F)c(-c2ccnc(Nc3ccccc3)n2)s1 [Compound 1, N-(3-(2-(tert-butyl)-5-(2-(phenylamino)pyrimidin-4-yl)thiazol-4-yl)-2-fluorophenyl)-2,6-difluorobenzenesulfonamide]	–	–	–	125	–	≤ 1 µM	< 0.2 µM	0.2 to 1 µM	< 0.2 µM	> 1 µM	> 1 µM	8	0.01 to 0.1 µM	0.01 to 0.1 µM	–	–	–	–
O=S(=O)(Nc1cccc(-c2nc(CCO)sc2-c2ccnc(Nc3ccccc3)n2)c1F)c1c(F)cccc1F [Compound 8, 2,6-difluoro-N-(2-fluoro-3-(2-(2-hydroxyethyl)-5-(2-(phenylamino)pyrimidin-4-yl)thiazol-4-yl)phenyl)benzenesulfonamide]	–	–	–	4	–	≤ 1 µM	–	< 0.2 µM	< 0.2 µM	–	–	20	–	–	0.2 to 1 µM	> 1 µM	0.2 to 1 µM	< 0.01 µM
CNC(=O)Cc1nc(-c2cccc(NS(=O)(=O)c3c(F)cccc3F)c2F)c(-c2ccnc(Nc3ccccc3)n2)s1 [Compound 9, 2-(4-(3-(2,6-difluorophenylsulfonamido)-2-fluorophenyl)-5-(2-(phenylamino)pyrimidin-4-yl)thiazol-2-yl)-N-methylacetamide]	–	–	–	–	–	1 to 5 µM	0.2 to 1 µM	< 0.2 µM	< 0.2 µM	> 1 µM	> 1 µM	–	–	–	–	–	–	–
